According to US20240108737A1, “ANTI-INFECTIVE BICYCLIC PEPTIDE LIGANDS” (priority 2021, published 2024):
*1 amine or outer side, *2 acyl side, *3 side chain or, on linkers, in order; H or OH if unused. Where a SMILES comes first, the peptide text is derived from it. Bridges are numbered along the chain shown (N, C = ends). Roman numbers before positions name the chains, in order. [ ]: non-standard residue; d: D form. X1 = O=C(CCOCCOCCOCCOCCOCCOCCOCCOCCOCCOCCOCCOCCOCCOCCOCCOCCOCCOCCOCCOCCOCCOCCOCCOCCn1cc(CCC(=O)[*:2])nn1)[*:1]; TATB = O=C(C[*:1])N1CN(C(=O)C[*:2])CN(C(=O)C[*:3])C1; X2 = C(c1nc(C[*:2])nc(C[*:3])n1)[*:1]; hArg = N=C(N)NCCCC[C@H](N)C(=O)O; tBuAla = CC(C)(C)C[C@H](N)C(=O)O

System: SARS-CoV-2 pseudotyped HIV-1 virions, D614G

## CC(=O)N[C@H]1CSCC(=O)N2CN3CN(C2)C(=O)CSC[C@H](NC(=O)[C@H](C(C)C)NC(=O)[C@@H]2CCCN2C(=O)[C@H](CC(N)=O)NC(=O)[C@H](CC(=O)O)NC(=O)[C@@H]2CCCN2C(=O)[C@H](CC(N)=O)NC(=O)[C@H](C)NC1=O)C(=O)N[C@@H](CCCNC(=N)N)C(=O)N[C@@H](Cc1ccccc1)C(=O)N[C@@H](Cc1ccc(O)cc1)C(=O)N[C@H](C(=O)N[C@@H](CCCCNC(=O)CCOCCOCCOCCOCCOCCOCCOCCOCCOCCOCCOCCOCCOCCOCCOCCOCCOCCOCCOCCOCCOCCOCCOCCOCCn1cc(CCC(=O)NCCCC[C@H](NC(=O)[C@@H]2CSCc4nc5nc(n4)CSC[C@H](NC(C)=O)C(=O)N4CCC[C@H]4C(=O)N[C@@H](Cc4ccc(O)cc4)C(=O)N[C@@H](C(C)C)C(=O)N[C@@H](C)C(=O)NCC(=O)N[C@@H](CCCCNC(=N)N)C(=O)N[C@H](C)C(=O)N[C@@H]([C@@H](C)O)C(=O)N[C@@H](CSC5)C(=O)N[C@@H](CC(C)C)C(=O)N[C@@H](CC(C)(C)C)C(=O)N2)C(N)=O)nn1)C(N)=O)CSCC3=O [BCY18786] (I: Ac-CANPDNPVCRFYCK-NH2 / II: Ac-CPYVAG[hArg][dA]TCL[tBuAla]CK-NH2; linker I:1-I:9-I:13 via TATB; linker I:14-II:14 via X1; linker II:1-II:10-II:13 via X2)
  IC50: 20 nM
